From patent US20080241215A1, “LOCAL VASCULAR DELIVERY OF PROBUCOL ALONE OR IN COMBINATION WITH SIROLIMUS TO TREAT RESTENOSIS, VULNERABLE PLAQUE, AAA AND STROKE” (priority 2007, published 2008)
Each block holds one compound with its values, some of them ahead of it.

How the values were obtained:
[1] = tested on: human coronary artery smooth muscle cells; assay: Proliferation of cultured human coronary artery smooth muscle cells; assay type: cell-based
Method: The multiple curves represent various concentrations of topotecan ranging from zero to three hundred nanomolar concentrations. […]
Curve 8702 illustrates the percent inhibition for various concentrations. In FIG. 88, the six curves 8802, 8804, 8806, 8808, 8810 and 8812 represent various concentrations of PX867 with various concentrations of sirolimus. […] More specifically, curve 8812 illustrates the percent inhibition for a 240 nM PX-867 concentration. […] This may be compared to curve 8804 which represents a 15 nM PX-867 concentration.

cell viability = assay: Cell viability assay; assay type: cell-based
From the text: The multiple curves represent various concentrations of topotecan ranging from zero to three hundred nanomolar concentrations.
The multiple curves represent various concentrations of etoposide ranging from zero to eight hundred nanomolar concentrations.

tumor cell lines = tumor cell lines (Woo et al. 2002); cited from earlier work
[2] = Porcine drug elution PK studies (in vivo release from stent coating)
[3] = tested on: human coronary artery smooth muscle cell; assay: MTS cytotoxicity assay; assay type: cell-based; settings: concentrations up to 30,000.00 nanomolar
From the text: Typically, a control is utilized to determine baseline toxicity.

SMILES: CC[C@@]1(O)C(=O)OCc2c1cc1n(c2=O)Cc2cc3c(CN(C)C)c(O)ccc3nc2-1 [topotecan]
- effect on anti-proliferative rapamycin dose response curves ([1]; synchronized cells, two percent fetal bovine serum, topotecan zero to three hundred nanomolar): potentiate the anti-proliferative activity of rapamycin
- cytotoxicity in cell viability assay (cell viability; concentrations up to one micromolar): non-cytotoxic

SMILES: CC(/C=C/C(=O)NO)=C\[C@@H](C)C(=O)c1ccc(N(C)C)cc1 [trichostatin A]
- inhibition of human coronary artery smooth muscle cell proliferation ([1]; in vitro cell culture studies): completely inhibit
- IC50 ([1]; in vitro cell culture studies, read-out: anti-proliferative IC50): ~6 nM
- anti-proliferative IC50's (tumor cell lines): low nM range

- drug remaining in the drug coating ([2]; after eight (8) days of implantation, single-layer sirolimus/cilostazol EVA/BMA coating with 100 μg BMA overcoat (FIG. 83)): ~80%
SMILES: CO[C@H]1C[C@@H]2CC[C@@H](C)[C@@](O)(O2)C(=O)C(=O)N2CCCC[C@H]2C(=O)O[C@H]([C@H](C)C[C@@H]2CC[C@@H](O)[C@H](OC)C2)CC(=O)[C@H](C)/C=C(\C)[C@@H](O)[C@@H](OC)C(=O)[C@H](C)C[C@H](C)/C=C/C=C/C=C/1C [rapamycin]

SMILES: COc1cc([C@@H]2c3cc4c(cc3[C@@H](O[C@@H]3O[C@@H]5CO[C@@H](C)O[C@H]5[C@H](O)[C@H]3O)[C@H]3COC(=O)[C@H]23)OCO4)cc(OC)c1O [etoposide]
- effect on anti-proliferative rapamycin dose response curves ([1]; non-synchronized cells, two percent fetal bovine serum, etoposide zero to eight hundred nanomolar): potentiate the anti-proliferative activity of rapamycin
- cytotoxicity in cell viability assay (cell viability; concentrations up to ten micromolar): non-cytotoxic

SMILES: COc1c(C)c2c(c(O)c1C/C=C(\C)CCC(=O)O)C(=O)OC2 [mycophenolic acid]
- effect on anti-proliferative rapamycin dose response curve ([1]; non-synchronized cells, two percent fetal bovine serum, mycophenolic acid zero to one thousand nanomolar): potentiates the anti-proliferative activity of rapamycin
- in vivo elution relative to rapamycin ([2]; EVA/BMA basecoat with 180 μg rapamycin and 180 μg mycophenolic acid, BMA topcoat 0-200 μg): elutes more completely over a shorter duration than the rapamycin

SMILES: COC[C@H]1OC(=O)/C(=C\N2CCCC2)C2=C(O)C(=O)C3=C([C@H](OC(C)=O)C[C@]4(C)C(=O)CC[C@@H]34)[C@]21C [PX-867]
- inhibition of coronary artery smooth muscle cell proliferation ([1]; PX867 alone at a concentration of about 10^−6): one hundred
- combination effect with sirolimus on percent inhibition ([1]; cultured cells, PX-867 15 nM to 240 nM with various sirolimus concentrations): strong synergistic effect

SMILES: COc1cc2c(cc1O)CC[C@@H]1[C@@H]2CC[C@]2(C)[C@@H](O)CC[C@@H]12 [Panzem®, 2-methoxyestradiol]
- anti-proliferative activity ([1]; synchronized cells, two percent fetal bovine serum): extremely effective inhibitor
- effect on percent inhibition by rapamycin ([1]; synchronized cells, two percent fetal bovine serum, Panzem zero to 100 micromolar): increases the percent of inhibition of rapamycin alone
- cell survival (MTS assay) [3]: do not reduce human coronary artery smooth muscle cell survival

- in vivo elution relative to rapamycin ([2]; EVA/BMA basecoat with rapamycin and cladribine, 200 μg BMA topcoat, Yorkshire pigs): elutes more rapidly than rapamycin
SMILES: Nc1nc(Cl)nc2c1ncn2[C@H]1C[C@H](O)[C@@H](CO)O1 [Cladribine, 2-chlorodeoxyadenosine]
- inhibition of human coronary artery smooth muscle cell proliferation ([1]; non-synchronized cells, two percent fetal bovine serum): completely inhibits
- effect on anti-proliferative rapamycin dose response curves ([1]; non-synchronized cells, two percent fetal bovine serum, cladribine zero to nine hundred nanomolar): potentiate the anti-proliferative activity of rapamycin
